Values joined by “and” are separate entries in the source; they are usually repeats but may differ in a detail not shown here. Equal entries are not always repeated.

Assay type in all cases: in vivo, mouse
One data set concerns DIO mice. Put plainly: Acute i.p. glucose tolerance test in DIO mice 6 h after a single s.c. dose (Fig. 3). Details: AOC: unit not given here. The settings on record: for AOC: AOC of i.p. GTT, DIO mice, 6 h after single s.c. dose, individual animals. On the procedure: (§1) Glp1r^−/− mice were kindly provided by D. Drucker (University of Toronto, Canada). All wildtype and knockout mice used in our studies were in-house bred on a C57BL/6J background. Mice were double-housed and kept in a constant environment with the ambient temperature set to 22 ± 2 °C with constant humidity (45–65%) and a 12 h/12 h light/dark cycle with lights off from 06:00 until 18:00. For studies in DIO mice, male C57BL/6J mice were fed with a high-fat diet comprising 58% kilocalories from fat (D12331, Research Diets). db/db mice were fed with a normal chow diet (T1314, Altromin GmbH) throughout the study. At the beginning of each experiment, mice were equally distributed into experimental groups according to their body weight and body composition. All animal studies were approved by the State of Bavaria, Germany, or the Insitutional Animal Care and Use Committee of the University of Cincinnati, OH, USA and conducted on the basis of the underlying animal welfare law of the respective countries. Compounds were dissolved in PBS and were s.c. administered with a volume of 5 μl g^−1 body weight in the indicated doses between 15:00 and 16:00.
Glucose tolerance was assessed in 6 h fasted mice after i.p injection of 1.75 g glucose per kg body weight (DIO mice). Insulin tolerance was assessed in 6 h fasted mice after i.p. injection of either 0.75 U Insulin per […] body weight (DIO mice) or 1 U Insulin per […] body weight (db/db mice) (Humalog, Eli Lilly). Tail vein blood glucose was subsequently measured using a handheld glucometer (TheraSense Freestyle) at baseline and after 15, 30, 60 and 120 min.

The subject of another data set is C57BL/6J DIO mice. Put plainly: Chronic high-dose treatment of DIO mice (14 days, 50 nmol/kg/day): body weight, food intake, fat and lean mass (Fig. 2a–d). Particulars: individual mice. From the text:
Glp1r^−/− mice were kindly provided by D. Drucker (University of Toronto, Canada). All wildtype and knockout mice used in our studies were in-house bred on a C57BL/6J background. […] At the beginning of each experiment, mice were equally distributed into experimental groups according to their body weight and body composition. All animal studies were approved by the State of Bavaria, Germany, or the Insitutional Animal Care and Use Committee of the University of Cincinnati, OH, USA and conducted on the basis of the underlying animal welfare law of the respective countries. Compounds were dissolved in PBS and were s.c. administered with a volume of 5 μl g^−1 body weight in the indicated doses between 15:00 and 16:00.
Fat and lean tissue mass were measured via nuclear magnetic resonance technology (EchoMRI).

A further data set deals with lean C57BL/6J mice. In words: 14-day treatment of lean mice: body weight, plasma cholesterol, triglycerides, AST, ALT, heart weight (Fig. 2n–s). More on the design: Cholesterol / TAG: unit not given here. On the procedure:
as §1

A further data set relates to cFOS. In words: cFOS positive neurons in hypothalamic nuclei (ARC, VMH, DMH) after a single s.c. dose (Fig. 7a,b; Extended Data Fig. 4a–c). On the procedure:
For cFOS analysis, mice were treated s.c. with a single dose of 150 nmol kg^−1. Tissues were harvested 90 min following drug exposure. Fixed brains were coronally cryosectioned and 35-μm-thick slices were immunolabelled with the monoclonal rabbit anti-cFOS antibody (1:400, Invitrogen, no. MA5-15055) and the antirabbit Alexa546 secondary antibody (1:4,000, Invitrogen, no. A10040). According to the Allen mouse brain atlas, the ARC and the dorsomedial and ventromedial hypothalamic nuclei were captured at ×20 magnification using the Leica SP8 confocal microscope. In each region, the number of cFOS positive cells was counted in a blinded manner using Fiji/ImageJ software. For assessment of central nervous system drug appearance, mice (n = 3–4 each group) were treated with a single s.c. dose of the Cy5-labelled peptides (150 nmol kg^−1). After 90 min, tissues were harvested and processed similar to the cFOS analysis.

As for `CCO[C@@H](Cc1ccc(OCCc2ccc(OS(C)(=O)=O)cc2)cc1)C(=O)O` [tesaglitazar, (S)-2-ethoxy-3-(4-(4-((methylsulfonyl)oxy)phenethoxy)phenyl) propanoic acid], the AOC in the data set on DIO mice (10 nmol/kg) was 602.5 and 1138 and 938 and 739 and 687.5 and 514.5 and 579.5 and 713.5; in the data set with DIO mice (100 nmol/kg), 808 and 562 and 500.5 and 764.5 and 734.5 and 596.5 and 539.5 and 745.5. Besides, in the data set with DIO mice (weight-matched DIO mice, single bolus 10 and 100 nmol kg−1, GTT 6 h after dose, Fig. 3a,b, in words), the i.p. glucose tolerance entry is “acutely worsened i.p. glucose tolerance”. Further, the “delta Fat mass (%)” value in the data set on C57BL/6J DIO mice (Figure 2c, sheet notes an outlier based on grubbs test) was -21.91% and -19.00% and -17.53% and -14.42% and -13.51% and -9.80% and -21.20% and -17.11%. Besides, in the data set with C57BL/6J DIO mice (Figure 2d), the “delta lean mass (%)” value was -3.73% and -4.62% and -4.21% and -6.43% and -3.83% and -4.53% and -3.02% and -3.39%. The “Heart weight/Tibia” value with lean C57BL/6J mice (14-day treatment, individual animals (Fig. 2s)) was 88.25 and 101.20 and 133.32 and 102.79 and 98.68 and 111.28 and 98.00 and 103.11. Besides, in the data set on lean C57BL/6J mice (14 days, 50 nmol kg−1 per day, Fig. 2o, in words), the plasma cholesterol levels entry is reported as “reduced plasma cholesterol levels”. Besides, the TAG with lean C57BL/6J mice (plasma triglycerides, 14-day treatment, individual animals (Fig. 2p)) was 28.51 and 67.33 and 61.82 and 37.82 and 28.64 and 34.88 and 35.62 and 62.31. Moreover, the Cholesterol in the data set with lean C57BL/6J mice (plasma, 14-day treatment, individual animals (Fig. 2o)) was 68.85 and 109.93 and 69.31 and 90.92 and 65.38 and 84.58 and 89.99 and 80.51. Besides, the ALT with lean C57BL/6J mice (plasma, 14-day treatment, individual animals (Fig. 2q), in U/L (unit assumed)) was 7.51 and 24.40 and 11.85 and 4.07 and 8.93 and 10.70 and 5.04 and 14.23. Also, the AST in the data set on lean C57BL/6J mice (plasma, 14-day treatment, individual animals (Fig. 2r), in U/L (unit assumed)) was 11.14 and 10.87 and 31.82 and 15.56 and 14.94 and 16.00 and 16.09 and 19.09. The “cFOS (cFos positive neurons in the ARC)” value in the data set with cFOS (Fig. 7b, 47-week-old male DIO mice, single s.c. 150 nmol kg−1, 90 min, individual mice) was 43 and 38 and 21 and 45. Also, the cFOS in the data set with cFOS (Suppl. Fig. 4b, animal 1 of the group) is 55; in the data set on cFOS (Suppl. Fig. 4b, animal 2 of the group) it was 124; in the data set on cFOS (Suppl. Fig. 4b, animal 3 of the group), 77; in the data set with cFOS (Suppl. Fig. 4b, animal 4 of the group), 96; in the data set with cFOS (Suppl. Fig. 4c, animal 1 of the group), 13; with cFOS (Suppl. Fig. 4c, animal 2 of the group) it was 9. The cFOS was 15 in the data set on cFOS (Suppl. Fig. 4c, animal 3 of the group) and 20 with cFOS (Suppl. Fig. 4c, animal 4 of the group).

The values above are taken from paper PMC9398908, “GLP-1-mediated delivery of tesaglitazar improves obesity and glucose metabolism in male mice” (Nature Metabolism, 2022).
